The source of these data is patent US20020160968A1, “Inhibitors of cellular niacinamide mononucleotide formation and their use in cancer therapy” (Klinge Pharma GmbH, priority 1999, published 2002).

Where two headings read alike, the source gives them in different places.

Holding throughout (format): cell-based, human
Assay [1] has as its system NAD(P) synthesis from niacinamide in HepG2 cells. Description: Determination of NAD(P) synthesis from [14C]niacinamide in HepG2 cells. The source says: The effect of the compounds on the synthesis of NAD(P) starting from niacinamide was investigated using for example the tumor cell line HepG2 according to the technique described in the experimental part below.
The inhibition of the NAD(P) synthesis from niacinamide by these compounds was investigated in HepG2 cells as described in the section “Material and Methods”. The compounds of Table 3 a were used at a concentration of 10^−5 M. The compounds of Table 3 b were used at concentrations of at least 10^−5 M, except for Doxorubicin where the concentration was 0.3×10^−5 M. As a control, vehicle treated or untreated cells were used.
In these experiments, a pre-incubation period of 17 hrs with the compounds was used, but it turned out that the pre-incubations period could be shortened, for example to 2 hrs, or skipped completely without affecting the inhibition profile. […] Similar results were obtained with the other specific compounds.
For the detection of specific inhibitors of niacinamide mononucleotide formation the following screening assay is especially useful which comprises the following steps: incubating cultured cells selected from HepG2 cells, U-87 MG cells, MCF-7 M1 cells, Caki-1 cells, HL-60 cells, PC3 cells, U-373 MG cells, A549 cells and KG-1a cells in the presence of [^14C]niacinamide and a compound to be tested for its activity to inhibit the cellular formation of niacinamide mononucleotide; effecting lysis of the cells; isolating and separating the [^14C]-labeled compounds and measuring the amount of formed labeled niacinamide mononucleotide, NAD and NADP. More concretely, cultured cells are seeded in a defined density in culture dishes, followed by incubation in the presence of a test compound and by the addition of [^14C]niacinamide for about 0.1 to 6 hrs. The cells are then lysed with perchloric acid and the resulting extract is neutralized. Finally, the [^14C]-labeled compounds are separated by thin-layer chromatography on cellulose matrices followed by UV detection and autoradiography. Non-radioactive niacinamide derivatives are used as standards. This assay allows simple and effective screening and selection of the compounds according to the invention.
Determination of NAD(P) Synthesis from [^14C]Niacinamide
The cells were detached from 75 cm^2 flasks by removing the growth medium and adding 3 ml trypsin/EDTA solution to each flask. After about 5 minutes incubation at 37° C., when the cells were detached from the surface of the dishes, trypsinization was stopped by adding 3 ml Richter's IMEM-ZO medium containing 10% FCS. The cells were suspended by repeated pipetting. For predilution, an aliquot of 20 μl was added to 10 ml Casyton isotonic solution (No. 043-90037P, Schärfe System, Reutlingen, Germany) using a Sysmex Auto Dilutor Type AD-260 (Toa, Medical Electronics Co. Ltd., Kobe, Japan). The cell number was determined by electronic cell volume measurements and counting with a CASY 1 Cell Counter+Analyzer System, Model TTC (Schärfe System, Reutlingen, Germany) equipped with a 60 μm capillary. Following dilution in IMEM-ZO containing 10% FCS, the cells were finally seeded at a density of 4×10^6/10 ml per sample in Ø 10 cm tissue culture dishes (Greiner, Frickenhausen, Germany) and incubated at 37° C. in a humidified atmosphere of 5% CO2 in air.
After one day, when the cells were adherent to the dishes, the cultures were replenished with IMEM-ZO containing 5% FCS plus the test compound or the vehicle. […] The cells were then incubated at 37° C. for 17 hours in a humidified atmosphere of 5% CO2 in air. This preincubation period is not necessary to achieve a distinct inhibitory action of the compounds and can be shortened for example to 2 or 0 hours. After this period of time, the medium was again discarded and 4 ml HEPES-buffered IMEM-ZO containing the test compound or the vehicle and 0.5 μCi/ml [^14C]niacinamide were added to each culture for an additional 5 hours at 37° C. and 100% humidity. […]

For a further assay, the system named is HepG2 cells. Put plainly: Cell growth under high-density conditions (SRB assay), delayed cell death (DCD). The settings on record: for Tox. (effective (toxic) concentration) in DCD: toxic compounds, rapid decrease in cell numbers; for Tox. (effective (toxic) concentration) in DCD / minimal effective concentration: high density HepG2 cultures; for minimal effective concentration: Homo sapiens. Background: The SRB assay estimates cell density from bound dye.

A further assay concerns Hep G2 cells. Put plainly: Nicotinamide Reversibility Assay / cell growth inhibition of Hep G2 cells (SRB, six days). The settings on record: for Reversal by Niacinamide: Hep G2 cell growth inhibition with added nicotinamide; for IC50: Homo sapiens, HepG2, 144 h, read-out: Cell growth inhibition IC50-values [μM] Hep G2. The procedure:
Nicotinamide Reversibility Assay
Hep G2 cells derived from a human liver carcinoma were plated at a density of 20,000 cells/ml in 12-well plastic dishes. Cultivation occurred in Richters IMEM-ZO nutrient medium with 5% fetal calf serum (FCS) in a tissue culture incubator with a gas mixture of 5% CO2 and 95% air at a temperature of 37° C. One day after plating, the culture medium was aspirated from the cells and replaced by fresh medium which contained the respective concentrations of the test compounds and where applicable of the nicotinamide. For the individual concentrations and the controls without test compounds, three-fold batches were done for each. Three days after the beginning of treatment, the medium was again renewed with the test compounds and where applicable the nicotinamide. After six days of compound incubation, the test was ended and the protein amount in the individual wells was determined with the sulforhodamin-B-method (according. to P. Skehan et al.: New Colorimetric Cytotoxicity Assay for Anticancer-Drug Screening. J. Natl. Cancer Inst. 82: 1107-1112, 1990). The IC50-values were taken from the dose-response curves and given as a comparative measurement for the activity of the test compounds.

[2] abbreviates: Table 3b, at least 10^-5 M, control 374.00.
The mark [3] stands for this setting: Table 3b, toxic compounds at at least 10^-5 M, control 531.
Where [4] appears, read: Homo sapiens, read-out: Cellular NAD synthesis inhibition [%].
Where [5] appears, read: Hep G2, six days of compound incubation, SRB.
Setting [6] is: minimum concentration which, despite initial growth, induced cell death below the number of initially seeded cells, Table 2.
[7] abbreviates: Homo sapiens, Table 3a, compound 10^-5 M, read-out: NAD(P) % of Control.
Setting [8] is: Table 3a, compound 10^-5 M, 17 hrs pre-incubation, control 302.1.
[9] abbreviates: Table 3a, compound 10^-5 M, control 186.4.

As usually defined, the inhibition is how much of the control response was suppressed. As usually defined, the IC50 is the concentration at which inhibition is half-maximal. For `NC(=O)c1ccc(N)nc1` [6-Aminonicotinamide, reference compound], the inhibition at 30 µM in assay [1] (Homo sapiens, 30 μM, read-out: Cellular NAD synthesis inhibition [%]) is 12%. Besides, the “NAD(P) % of Control” value in assay [1] (Table 3b, at least 10^-5 M) is recorded as 88.0%. The “NAD(P) pmol/mg protein” value in assay [1] (setting [2]) was 329.34 pmol/mg protein. Moreover, the “NAD(P) pmol/10^6 cells” value in assay [1] (setting [3]) was determined as 466.98 pmol/10^6 cells. The “Tox. (effective (toxic) concentration) in DCD” value with HepG2 cells is “Tox. 10000 μM”. Also, in the assay on Hep G2 cells, the “Reversal by Niacinamide” value is given as “yes” and the IC50 is 4 µM.

With `[N-]=[N+]=CC(=O)CC[C@H](N)C(=O)O` [6-Diazo-5-oxo-L-norleucine, reference compound], the inhibition at 10 µM in assay [1] (setting [4]) was determined as 0%. In addition, the “NAD(P) % of Control” value in assay [1] (Table 3b, at least 10^-5 M) is given as 110.5%. Also, the “NAD(P) pmol/mg protein” value in assay [1] (setting [2]) worked out at 413.55 pmol/mg protein. Moreover, the “NAD(P) pmol/10^6 cells” value in assay [1] (setting [3]) is given as 586.39 pmol/10^6 cells. In the assay with HepG2 cells, the “Tox. (effective (toxic) concentration) in DCD” value is on record as “Tox. 100 μM”. Moreover, the “Influence of the addition of nicotinamide on the action on cell growth (FIGS. 20 to 27)” value (“Influence” below) in the assay with Hep G2 cells (Hep G2) was “no measurable influence”. Also, the “Reversal by Niacinamide” value with Hep G2 cells is “no”. In addition, the IC50 with Hep G2 cells (setting [5]) turned out to be 3 µM.

On to `[N-]=[N+]=CC(=O)OC[C@H](N)C(=O)O` [Azaserine, reference compound], for which the inhibition at 10 µM in assay [1] (setting [4]) was 0%. Further, the “NAD(P) % of Control” value in assay [1] (Table 3b, at least 10^-5 M) worked out at 100.0%. The “NAD(P) pmol/mg protein” value in assay [1] (setting [2]) was determined as 374.23 pmol/mg protein. In assay [1] (setting [3]), the “NAD(P) pmol/10^6 cells” value turned out to be 530.64 pmol/10^6 cells. The “Influence” value in the assay on Hep G2 cells (Hep G2) was “no measurable influence”. Also, in the assay with Hep G2 cells, the “Reversal by Niacinamide” value was “no”. Besides, in the assay on Hep G2 cells (setting [5]), the IC50 came to 0.7 µM.

One may read the minimal effective concentration as the smallest amount tested that counted as effective. Lower therefore signals greater potency. As for `O=C(NCCCCC1CCN(C(c2ccccc2)c2ccccc2)CC1)Nc1cccnc1` [Compound K22130, 1-[4-(1-benzhydryl-piperidine-4-yl)-butyl]-3-pyridine-3-yl-urea], the minimal effective concentration with HepG2 cells (Table 5) and with HepG2 cells (setting [6]) was 1 µM in each case. Moreover, the IC50 in the assay with Hep G2 cells (setting [5]) stood at 0.08 µM.

Turning to `O=C(NCCCCCCNC(=O)N1CCN(C(c2ccccc2)c2ccccc2)CC1)NCc1cccnc1` [Compound K22132, 4-benzhydryl-piperazine-1-carboxylic acid-[6-(3-pyridine-3-yl-methylureido)-hexyl]-amide], the inhibition at 10 µM in assay [1] (setting [4]) amounted to 99%. Further, the activity at 10 µM in assay [1] (setting [7]) was determined as 1.4%. Also, in assay [1] (setting [8]), the “NAD(P) pmol/10^6 cells” value worked out at 4.1 pmol/10^6 cells. Moreover, in assay [1] (setting [9]), the “NAD(P) pmol/mg protein” value was found to be 2.5 pmol/mg protein. Also, the minimal effective concentration in the assay with HepG2 cells (Table 5) came out at 0.03 µM; with HepG2 cells (setting [6]), 0.1 µM. In addition, in the assay with Hep G2 cells (setting [5]), the IC50 is 0.02 µM.

For the compound `S=C(NCCCCCC1CCN(C(c2ccccc2)c2ccccc2)CC1)Nc1cccnc1` [Compound K22234, 1-[5-(1-benzhydryl-piperidine-4-yl)-pentyl]-3-pyridine-3-yl-thiourea], the inhibition at 10 µM in assay [1] (setting [4]) was determined as 99%. Also, in assay [1] (setting [7]), the activity at 10 µM was found to be 1.1%. Also, the “NAD(P) pmol/10^6 cells” value in assay [1] (setting [8]) is on record as 3.4 pmol/10^6 cells. For the same compound, the “NAD(P) pmol/mg protein” value in assay [1] (setting [9]) was 2.1 pmol/mg protein. Besides, the minimal effective concentration with HepG2 cells (Table 5) and with HepG2 cells (setting [6]) was 0.3 µM each time. Also, the IC50 in the assay on Hep G2 cells (setting [5]) came to 0.2 µM.

In the case of `O=C(CCCCCN1CCN(C(c2ccccc2)c2ccccc2)CC1)NCCc1cccnc1` [Compound K22265, 6-(4-benzhydryl-piperazine-1-yl)-hexanoic acid-(2-pyridine-3-yl-ethyl)-amide], the inhibition at 10 µM in assay [1] (setting [4]) stood at 98%. Moreover, the activity at 10 µM in assay [1] (setting [7]) is 2.4%. Further, in assay [1] (setting [8]), the “NAD(P) pmol/10^6 cells” value is given as 7.3 pmol/10^6 cells. In assay [1] (setting [9]), the “NAD(P) pmol/mg protein” value is recorded as 4.5 pmol/mg protein. Besides, the minimal effective concentration in the assay with HepG2 cells (Table 5) and in the assay on HepG2 cells (setting [6]) was 3 µM each time. The IC50 with Hep G2 cells (setting [5]) turned out to be 2 µM.

On to `S=C(NCCCCC=C(c1ccccc1)c1ccccc1)N/N=C/c1cccnc1` [Compound K22299, 1-(6,6-diphenyl-5-hexenyl)-3-(pyridine-3-yl-methylene-amino)-thiourea], for which, in assay [1] (setting [4]), the inhibition at 10 µM was 99%. Also, the activity at 10 µM in assay [1] (setting [7]) came out at 0.5%. Besides, in assay [1] (setting [8]), the “NAD(P) pmol/10^6 cells” value is 1.6 pmol/10^6 cells. Moreover, the “NAD(P) pmol/mg protein” value in assay [1] (setting [9]) came to 1.0 pmol/mg protein. Moreover, the minimal effective concentration in the assay on HepG2 cells (Table 5) and in the assay with HepG2 cells (setting [6]) was 0.3 µM in each case. Besides, in the assay with Hep G2 cells (setting [5]), the IC50 was determined as 0.1 µM.

With `O=C(NCCCCC1CCN(C(c2ccccc2)c2ccccc2)CC1)NCCc1cccnc1` [Compound K22339, 1-[4-(1-benzhydryl-piperidine-4-yl)-butyl]-3-(2-pyridine-3-ylethyl)-urea], the inhibition at 1 µM in assay [1] (Homo sapiens, 1 μM, read-out: Cellular NAD synthesis inhibition [%]) worked out at 99%. For the same compound, the activity at 10 µM in assay [1] (setting [7]) worked out at 0.8%. The “NAD(P) pmol/10^6 cells” value in assay [1] (setting [8]) was determined as 2.5 pmol/10^6 cells. Also, in assay [1] (setting [9]), the “NAD(P) pmol/mg protein” value stood at 1.6 pmol/mg protein. Besides, the minimal effective concentration in the assay with HepG2 cells (Table 5) came out at 0.1 µM; with HepG2 cells (setting [6]), 0.3 µM. Besides, in the assay on HepG2 cells (concentrations of at least 0.3 μM, high density HepG2 culture), the “Day on which cell death occurred” value is 4 days. Further, in the assay with Hep G2 cells (Hep G2), the “Influence” value is “can be antagonized”. The “Reversal by Niacinamide” value in the assay on Hep G2 cells was “yes”. In addition, the IC50 in the assay with Hep G2 cells (setting [5]) came to 0.1 µM.

Regarding `COc1cccc2c1C(=O)c1c(O)c3c(c(O)c1C2=O)C[C@@](O)(C(=O)CO)C[C@@H]3O[C@H]1C[C@H](N)[C@H](O)[C@H](C)O1` [Doxorubicin, reference compound], the inhibition at 3 µM in assay [1] (Homo sapiens, 3 μM, read-out: Cellular NAD synthesis inhibition [%]) came to 0%. Further, the activity at 3 µM in assay [1] (Homo sapiens, Table 3b, 0.3×10^-5 M, read-out: NAD(P) % of Control) is 102%. In addition, the “Influence” value with Hep G2 cells (Hep G2) was “no measurable influence”. Besides, the “Reversal by Niacinamide” value with Hep G2 cells is “no”. In the assay on Hep G2 cells (setting [5]), the IC50 worked out at 0.02 µM.
